# Measured values reported in ChEMBL document CHEMBL1138830, “On the function of the 14 A long internal cavity of histone deacetylase-like protein: implications for the design of histone deacetylase inhibitors” (J Med Chem, 2004).
# Target: Histone deacetylase 1 (Homo sapiens, UniProt Q13547)
# Assay: Inhibitory activity against human Histone deacetylase 1
# Histone deacetylase 1, sequence (Q13547 whole entry): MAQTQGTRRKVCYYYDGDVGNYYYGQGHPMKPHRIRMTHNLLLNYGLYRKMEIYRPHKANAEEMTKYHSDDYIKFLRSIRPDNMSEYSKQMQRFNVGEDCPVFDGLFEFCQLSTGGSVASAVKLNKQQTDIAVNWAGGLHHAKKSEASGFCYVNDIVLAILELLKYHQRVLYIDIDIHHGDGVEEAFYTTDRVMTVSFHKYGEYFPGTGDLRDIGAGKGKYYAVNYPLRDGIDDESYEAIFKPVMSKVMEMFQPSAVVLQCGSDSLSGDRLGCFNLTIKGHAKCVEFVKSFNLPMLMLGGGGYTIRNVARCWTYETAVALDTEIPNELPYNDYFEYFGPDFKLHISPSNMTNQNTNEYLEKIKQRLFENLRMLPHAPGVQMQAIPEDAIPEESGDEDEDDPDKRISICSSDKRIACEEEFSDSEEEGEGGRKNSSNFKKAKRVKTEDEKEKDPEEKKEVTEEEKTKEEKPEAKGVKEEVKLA
row,IC50,Compound
1,2.5 nM,O=C(CCCCCC(NC(=O)OCc1ccccc1)C(=O)Nc1cccc2cccnc12)NO (stereo not drawn)
2,1 nM,O=C(/C=C/c1cccc(C(C(=O)Nc2ccccc2)C(=O)Nc2ccccc2)c1)NO
3,1 nM,O=C(CCCCCC(C(=O)Nc1ccc2ncccc2c1)C(=O)Nc1ccc2ncccc2c1)NO
